In patent US20260265247A1, “MULTI-KINASE INHIBITORS, COMPOSITIONS THEREOF, AND METHODS OF USING THE SAME” (BIOFRONT LTD, priority 2022, published 2026):

Assays:
Format in all cases: biochemical
[1] = target: T1, FLT3-ITD (Homo sapiens, UniProt P36888); assay: FLT3-ITD Enzymatic Assay; details: enzyme inhibition; peptide 2 3 μM, ATP 97.2 μM
T1 sequence (P36888 1-993): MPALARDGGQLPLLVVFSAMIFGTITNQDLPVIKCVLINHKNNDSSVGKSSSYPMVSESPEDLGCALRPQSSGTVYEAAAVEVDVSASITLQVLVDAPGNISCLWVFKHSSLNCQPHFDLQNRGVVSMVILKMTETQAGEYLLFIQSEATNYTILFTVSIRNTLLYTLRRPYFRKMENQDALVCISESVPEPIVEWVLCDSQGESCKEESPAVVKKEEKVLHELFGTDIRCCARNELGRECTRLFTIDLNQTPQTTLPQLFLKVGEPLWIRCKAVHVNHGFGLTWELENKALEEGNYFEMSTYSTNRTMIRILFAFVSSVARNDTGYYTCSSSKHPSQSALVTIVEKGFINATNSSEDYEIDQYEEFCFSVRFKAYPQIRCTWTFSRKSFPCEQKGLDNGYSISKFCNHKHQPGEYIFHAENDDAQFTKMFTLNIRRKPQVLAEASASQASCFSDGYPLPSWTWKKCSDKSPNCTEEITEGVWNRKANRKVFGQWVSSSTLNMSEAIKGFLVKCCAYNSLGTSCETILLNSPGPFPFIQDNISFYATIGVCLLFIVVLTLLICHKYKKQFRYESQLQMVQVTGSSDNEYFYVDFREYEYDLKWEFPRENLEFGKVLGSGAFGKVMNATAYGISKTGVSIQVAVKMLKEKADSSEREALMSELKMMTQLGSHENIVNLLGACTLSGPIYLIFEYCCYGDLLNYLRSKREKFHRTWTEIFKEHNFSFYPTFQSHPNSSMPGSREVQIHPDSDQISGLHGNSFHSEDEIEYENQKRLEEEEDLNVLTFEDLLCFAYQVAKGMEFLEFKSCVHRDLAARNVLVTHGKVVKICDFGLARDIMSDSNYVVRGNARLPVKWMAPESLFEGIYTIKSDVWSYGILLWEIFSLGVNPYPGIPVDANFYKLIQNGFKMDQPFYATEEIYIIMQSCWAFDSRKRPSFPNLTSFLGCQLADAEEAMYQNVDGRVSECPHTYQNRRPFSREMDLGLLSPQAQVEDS
Method: The compound was dissolved in 100% DMSO at the concentration of 10 mM. The FLT3-ITD protein was purchased from Invitrogen (PV6191). 10 μL per well of 2.5× FLT3-ITD protein was added to assay plate containing the test compound, centrifuged at 1000 rpm for 1 minute, and then incubated at 25° C. for 10 minutes. Peptide 2 was purchased from GL Biochem (112394) and ATP was purchased from Promega (V9102). The two were added 15 μL per well mixture of 1.67× peptide 2 (final conc. is 3 μM) and ATP (final conc. is 97.2 μM), centrifuged at 1000 rpm for 1 minute, then incubated at 25° C. for 40 minutes. Then added 30 μL of stop buffer (100 mM HEPES pH7.5, 0.015% Brij-35, 0.2% Coating Reagent 3, 50 mM EDTA) to the assay plate and centrifuged at 1000 rpm for 1 minute. the product was determined. Based on the results, the IC50 value of the compound was calculated.

[2] = target: T2, HPK1 (Homo sapiens, UniProt Q92918); assay: HPK1 Enzymatic Assay (ADP-Glo); details: enzyme inhibition; MBP substrate, ATP 20 μM mixture
T2 construct: purchased Signal Chem M23-11G-10
T2 sequence (Q92918 1-346 limits assumed): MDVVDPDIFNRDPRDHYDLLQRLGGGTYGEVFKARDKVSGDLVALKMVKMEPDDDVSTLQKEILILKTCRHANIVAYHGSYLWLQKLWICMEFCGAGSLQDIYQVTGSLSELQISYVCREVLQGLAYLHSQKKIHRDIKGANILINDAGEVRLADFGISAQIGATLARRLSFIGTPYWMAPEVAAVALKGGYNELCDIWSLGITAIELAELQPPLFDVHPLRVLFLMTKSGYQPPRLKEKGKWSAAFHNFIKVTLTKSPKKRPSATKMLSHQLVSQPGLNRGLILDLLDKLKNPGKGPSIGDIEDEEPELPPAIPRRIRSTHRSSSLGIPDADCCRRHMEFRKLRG
Method: The compound was dissolved in 100% DMSO at the concentration of 10 mM. The HPK1 protein was purchased from Signal Chem (M23-11G-10). 2.5 μL per well of 2× HPK1 protein was added to assay plate containing the test compound, centrifuged at 1500 rpm for 1 minute, and then incubated at 25° C. for 60 minutes. MBP protein was purchased from Signal Chem (M42-51N) and ATP was purchased from Promega (V9102). The two were added 2.5 μL per well mixture of 2× MBP (0.2 ug/ul) and ATP (20 μM), centrifuged at 1500 rpm for 1 minute, then incubated at 25° C. for 60 minutes. Then added 5 μL of ADP-Glo from Promega (V9102) to the assay plate and depleted the unconsumed ATP for 60 minutes. Then centrifuged at 1500 rpm for 1 minute and incubated at 25° C. for 60 minutes. Finally, 10 μL of the kinase assay reagent from Promega (V9102) was added to the assay plate to convert ADP to ATP, centrifuged at 1500 rpm for 1 minute, incubate at 25° C. for 40 minutes. After 40 minutes incubation, the fluorescence was determined. Based on the results, the IC50 value of the compound was calculated.

[3] = target: T3, Aurora A (Homo sapiens, UniProt O14965); assay: Aurora A Enzymatic Assay; details: enzyme inhibition; peptide 21 3 μM, ATP 14.58 μM
T3 construct: purchased Carna 05-101
T3 sequence (O14965 1-403): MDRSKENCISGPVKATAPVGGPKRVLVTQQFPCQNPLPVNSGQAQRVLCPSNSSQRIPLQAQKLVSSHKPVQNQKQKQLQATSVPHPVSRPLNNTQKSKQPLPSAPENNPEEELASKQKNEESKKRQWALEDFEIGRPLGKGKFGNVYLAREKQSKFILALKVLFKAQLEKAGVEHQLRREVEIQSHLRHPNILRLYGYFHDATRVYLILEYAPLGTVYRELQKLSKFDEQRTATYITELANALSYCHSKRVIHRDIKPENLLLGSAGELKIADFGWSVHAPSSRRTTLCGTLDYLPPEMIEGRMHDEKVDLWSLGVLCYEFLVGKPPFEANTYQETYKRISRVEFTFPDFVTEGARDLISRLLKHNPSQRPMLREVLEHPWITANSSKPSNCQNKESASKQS
Method: The compound was dissolved in 100% DMSO at the concentration of 10 mM. The Aurora A protein was purchased from Carna (05-101). 10 μL per well of 2.5× Aurora A protein was added to assay plate containing the test compound, centrifuged at 1000 rpm for 1 minute, and then incubated at 25° C. for 10 minutes. Peptide 21 was purchased from GL Biochem (116370) and ATP was purchased from Promega (V9102). The two were added 15 μL per well mixture of 1.67× peptide 21 (final conc. is 3 μM) and ATP (final conc. is 14.58 μM), centrifuged at 1000 rpm for 1 minute, then incubated at 25° C. for 40 minutes. Then added 30 μL of stop buffer (100 mM HEPES pH7.5, 0.015% Brij-35, 0.2% Coating Reagent 3, 50 mM EDTA) to the assay plate and centrifuged at 1000 rpm for 1 minute. the product was determined. Based on the results, the IC50 value of the compound was calculated.

Row | SMILES | IC50 [1] | IC50 [2] | IC50 [3]
1 | CCc1c[nH]c2ncc(-c3cccc(-n4cn[nH]c4=O)c3)c(Cl)c12 [Compound 1, 4-(3-(4-chloro-3-ethyl-1H-pyrrolo[2,3-b]pyridin-5-yl)phenyl)-2,4-dihydro-3H-1,2,4-triazol-3-one] | 37.8 nM | 20.6 nM | 35.8 nM
2 | O=c1[nH]ncn1-c1cccc(-c2cnc3[nH]cc(C4CC4)c3c2Cl)c1 [Compound 2, 4-(3-(4-chloro-3-cyclopropyl-1H-pyrrolo[2,3-b]pyridin-5-yl)phenyl)-2,4-dihydro-3H-1,2,4-triazol-3-one] | 23.7 nM | 18.2 nM | 53.6 nM
3 | CCc1c[nH]c2ncc(-c3cccc(N4CCNC4=O)c3)c(Cl)c12 [Compound 3] | 22.5 nM | 25.7 nM | 13.3 nM
4 | O=C1NCCN1c1cccc(-c2cnc3[nH]cc(C4CC4)c3c2Cl)c1 [Compound 4] | 14.6 nM | 27.6 nM | 22.9 nM
5 | O=C1NCCCN1c1nc(-c2cnc3[nH]cc(C4CC4)c3c2Cl)cs1 [Compound 5] | 2.2 nM | 18.9 nM | 3.1 nM
6 | O=C1NCCN1c1cccc(-c2cnc3[nH]cc(C4CC4)c3c2Cl)n1 [Compound 6, 1-(6-(4-chloro-3-cyclopropyl-1H-pyrrolo[2,3-b]pyridin-5-yl)pyridin-2-yl) imidazolidin-2-one] | 6.1 nM | 14.3 nM | 9.5 nM
7 | Cc1sc(N2CCCNC2=O)nc1-c1cnc2[nH]cc(C3CC3)c2c1Cl [Compound 7, 1-(4-(4-chloro-3-cyclopropyl-1H-pyrrolo[2,3-b]pyridin-5-yl)-5-methylthiazol-2-yl)tetrahydropyrimidin-2(1H)-one] | 4.2 nM | 126 nM | 93.7 nM
8 | O=C1NCCCN1c1cccc(-c2cnc3[nH]cc(C4CC4)c3c2Cl)n1 [Compound 8, 1-(6-(4-chloro-3-cyclopropyl-1H-pyrrolo[2,3-b]pyridin-5-yl)pyridin-2-yl)tetrahydropyrimidin-2(1H)-one] | 6 nM | 2.4 nM | 7.8 nM
9 | CCc1c[nH]c2ncc(-c3cccc(N4CCCNC4=O)c3)c(Cl)c12 [Compound 9] | 0.8 nM | 2 nM | 172 nM
10 | O=C1NC2(CCNC2)C(=O)N1c1cccc(-c2cnc3[nH]cc(C4CC4)c3c2Cl)c1 (stereo not drawn) [Compound 10, 3-(3-(4-chloro-3-cyclopropyl-1H-pyrrolo[2,3-b]pyridin-5-yl)phenyl)-1,3,7-triazaspiro[4.4]nonane-2,4-dione] | 11.6 nM | 14.4 nM | 27.4 nM
11 | O=C1NC2(CCNC2)CN1c1cccc(-c2cnc3[nH]cc(C4CC4)c3c2Cl)c1 (stereo not drawn) [Compound 11, 3-(3-(4-chloro-3-cyclopropyl-1H-pyrrolo[2,3-b]pyridin-5-yl)phenyl)-1,3,7-triazaspiro[4.4]nonan-2-one] | 22.3 nM | 15.7 nM | 34.3 nM
12 | CCN(C)C(=O)c1c[nH]c2ncc(-c3cccc(N4CCCNC4=O)c3)c(Cl)c12 [Compound 12, 4-Chloro-N-ethyl-N-methyl-5-(3-(2-oxotetrahydropyrimidin-1 (2H)-yl)phenyl)-1H-pyrrolo[2,3-b]pyridine-3-carboxamide] | > 990 nM | > 1000 nM | > 1000 nM
13 | N#Cc1cc(-c2cnc3[nH]cc(C4CC4)c3c2Cl)cc(N2CCCNC2=O)c1 [Compound 13, 3-(4-chloro-3-cyclopropyl-1H-pyrrolo[2,3-b]pyridin-5-yl)-5-(2-oxotetrahydropyrimidin-1(2H)-yl)benzonitrile] | 93.6 nM | 827 nM | 78.9 nM
14 | CS(=O)(=O)c1ccc(-c2cnc3[nH]cc(C4CC4)c3c2Cl)cc1N1CCCNC1=O [Compound 14, 1-(5-(4-chloro-3-cyclopropyl-1H-pyrrolo[2,3-b]pyridin-5-yl)-2-(methylsulfonyl)phenyl)tetrahydropyrimidin-2(1H)-one] | 37.4 nM | 151 nM | 7.1 nM
